Results on 3 compounds are retold here after US8193252B1, “Mesoprogestins (progesterone receptor modulators) for the treatment and prevention of benign hormone dependent gynecological disorders” (Bayer Pharma AG, priority 1999, dated 2012).

Molecules are shown by their SMILES. Some results are limits rather than exact numbers.

One assay addresses T1, GR (Homo sapiens, UniProt P04150).
T1 sequence (P04150 1-777): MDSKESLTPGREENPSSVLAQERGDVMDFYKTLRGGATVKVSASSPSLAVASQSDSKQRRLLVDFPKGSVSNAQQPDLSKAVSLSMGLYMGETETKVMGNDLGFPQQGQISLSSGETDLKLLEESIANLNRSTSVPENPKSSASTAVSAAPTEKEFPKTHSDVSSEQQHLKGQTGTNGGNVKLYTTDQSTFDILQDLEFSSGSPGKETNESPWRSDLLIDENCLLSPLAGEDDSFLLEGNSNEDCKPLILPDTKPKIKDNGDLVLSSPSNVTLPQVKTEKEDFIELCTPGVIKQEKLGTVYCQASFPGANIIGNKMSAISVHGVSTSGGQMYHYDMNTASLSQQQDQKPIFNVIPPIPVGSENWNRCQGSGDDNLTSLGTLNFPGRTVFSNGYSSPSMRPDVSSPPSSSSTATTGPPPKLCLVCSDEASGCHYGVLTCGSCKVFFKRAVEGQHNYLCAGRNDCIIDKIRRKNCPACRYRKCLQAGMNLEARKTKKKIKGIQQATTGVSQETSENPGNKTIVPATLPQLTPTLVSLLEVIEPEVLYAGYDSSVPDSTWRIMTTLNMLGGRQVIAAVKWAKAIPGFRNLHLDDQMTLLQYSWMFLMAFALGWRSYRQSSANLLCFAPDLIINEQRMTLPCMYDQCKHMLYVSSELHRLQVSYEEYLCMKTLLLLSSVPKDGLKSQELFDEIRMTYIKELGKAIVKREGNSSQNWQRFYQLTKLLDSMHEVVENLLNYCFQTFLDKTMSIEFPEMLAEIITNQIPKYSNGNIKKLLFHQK
The assay is described as follows: Relative binding activity (RBA) at GR, dexamethasone = 100%. The note with it: by Kaufmann.

The test system of the next assay is pregnant rats. The assay is described as follows: Abortifacient activity in pregnant rats. Particulars: s.c.; treatment days 5-7 of pregnancy, autopsy day 9; * SAS, probit procedure. Format: in vivo, rat. The source says: (§1) The guinea pig is considered as relevant model of human gestation and parturition (Elger W, Fähnrich M, Beier S, Quing S S, Chwalisz K (1987). Endometrial and myometrial effects of progesterone antagonists in pregnant guinea pigs. Am J Obstet Gynecol 157: 1065-1074; Elger W, Neef G, Beier S, Fähnrich M, Gründel M, Heermann J, Malmendier A, Laurent D, Puri C P, Singh M M, Hasan S H, Becker H (1992). Evaluation of antifertility activities of antigestagens in animal model. In: Puri C P and Van Look P F A (eds), Current Concepts in Fertility Regulation and Reproduction. Wiley Eastern Limited, New Delhi, pp. 303-328; Elger W, Faehnrich M, Beier S, Qing S S, Chwalisz K (1986). Mechanism of action of progesterone antagonists in pregnant guinea pigs. Contraception 6: 47-62; Elger W, Chwalisz K, Faehnrich M, Hasan S H, Laurent D, Beier S, Ottow E, Neef G, Garfield R E (1990). Studies on labor-conditioning and labor-inducing effects of antiprogesterones in animal model. In: Garfield R E (eds), Norwell, pp. 153-175.) The mechanism of abortion of antiprogestins in this species is the initiation of labor and finally the expulsion of the conceptus. Abortifacient effects in the rat during very early pregnancy reflect inhibitory effects on nidation rather than initiation of uterine contractions. Studies in the rat model lead to “overestimation” of the potential of antiprogestins to terminate pregnancy in humans. Conversely, in the guinea pig model, irrespective of the antiprogestin doses, there were high rates of ongoing pregnancies similar to the situation in humans (Elger et al., Current Concepts in Fertility Regulation and Reproduction cited above). Furthermore, in both humans and guinea pigs, there is a strong synergism between antiprogestins and prostaglandins with respect the induction of labor (see the articles cited above and Elger W, Beier S (1983). Prostaglandine and Antigestagene für den Schwangerschaftsabbruch (Prostaglandins and antigestagens for pregnancy termination). German Patent DE 3337450 12; Van Look P, Bygdeman M (1989). Antiprogestational steroids: a new dimension in human fertility regulation. Oxford reviews of reproductive medicine 11: 2-60).

The subject of a further assay is pregnant guinea pigs. As to the kind of experiment: Abortifacient / labor inducing activity in pregnant guinea pigs. Format: in vivo, guinea pig. The note with it: for abortifacient activity ED50, guinea pig: s.c., treatment day 43-44 of pregnancy, autopsy day 50; for ranking of abortifacient activity: treated on days 43 and 44 of pregnancy, observed until day 50. How it is done:
In the guinea pig model which allows a good prediction of the effects in humans with respect to the abortifacient activity (Elger W, Beier S., Chwalisz K, Fähnrich M, Hasan S H, Henderson D, Neef G, Rohde R (1986): Studies on the mechanism of action of progesterone antagonists. J Steroid Biochem 25: 835-845) the mesoprogestins J 867, J 912, J 956, J 1042 lead up to 100 mg/kg/day to a maximal abortion rate of 20%.
as §1
Pregnant guinea pigs were treated on days 43 and 44 of pregnancy and observed until day 50 of gestation. For the effects of various treatments see table 1 and FIG. 2. It is typical for this model that expulsions occur with a delay of several days after treatment. It can be seen that Mesoprogestins have a much reduced abortifacient activity compared to RU486. […] The differences with respect to abortifacient activity seem qualitative ones. It is not possible to overcome the low abortifacient activity of a Mesoprogestin by the use of a higher dose.
FIG. 2 is graphs showing data on the assessment on cumulative rate of abortion until day 50 in guinea pigs treated on days 43 and 44 of pregnancy.

On to `CCSC(=O)O/N=C/c1ccc([C@H]2C[C@@]3(C)[C@@H](CC[C@]3(COC)OC)[C@@H]3CCC4=CC(=O)CCC4=C32)cc1` [J1042, 4-[17β-Methoxy-17α-(methoxymethyl)-3-oxoestra-4,9-dien-11β-yl]benzaldehyd-(1E)-[O-(ethylthio)carbonyl]oxim], for which the “RBA (%) GR” value at GR is given as 42%. Moreover, the “abortifacient activity ED50, rat” value with pregnant rats is on record as greater than 10 mg/animal/day. Moreover, in the assay with pregnant guinea pigs, the “abortifacient activity ED50, guinea pig” value is recorded as >>100 mg/animal/day and the “ranking of abortifacient activity” value was “RU486>J956>J867, J912>J1042”.
For `CCNC(=O)O/N=C/c1ccc([C@H]2C[C@@]3(C)[C@@H](CC[C@]3(COC)OC)[C@@H]3CCC4=CC(=O)CCC4=C32)cc1` [J956, 4-[17β-Methoxy-17α-(methoxymethyl)-3-oxoestra-4,9-dien-11β-yl]benzaldehyd-(1E)-[O-(ethylamino)carbonyl]oxim], the “RBA (%) GR” value on GR was determined as 154%. The “abortifacient activity ED50, rat” value in the assay on pregnant rats was 0.64* mg/animal/day. Besides, in the assay with pregnant guinea pigs, the “abortifacient activity ED50, guinea pig” value was 20 mg/animal/day and the “ranking of abortifacient activity” value was “RU486>J956>J867, J912>J1042”.
On to `COC[C@]1(OC)CC[C@H]2[C@@H]3CCC4=CC(=O)CCC4=C3[C@@H](c3ccc(/C=N/O)cc3)C[C@@]21C` [J867, 4-[17β-Methoxy-17α-(methoxymethyl)-3-oxoestra-4,9-dien-11β-yl]benzaldehyd-(1E)-oxim], for which the “RBA (%) GR” value on GR is listed as 78%. For the same compound, the “abortifacient activity ED50, rat” value with pregnant rats is 0.65* mg/animal/day. In the assay with pregnant guinea pigs, the “abortifacient activity ED50, guinea pig” value is given as greater than 100 mg/animal/day and the “ranking of abortifacient activity” value was “RU486>J956>J867, J912>J1042”.
